Data reported in US7935685B2, “Process for preparation of inclusion compounds between a non-steroidal anti-inflammatory drug and betacyclodextrin by microwave treatment” (Chiesi Farmaceutici S.p.A., priority 2001, dated 2011).

Assay: Dissolution rate of piroxicam from the solid phases, dispersed amount method (USP 25, NF 20)
Type: physicochemical
Conditions: 1 L distilled water, 37° C., paddle 50 rpm
Protocol: The dissolution rate of the samples under study was determined by the dispersed amount method according to the USP 25, NF 20, 2002. The test samples were introduced into vessels containing 1 L of distilled water each.
The test was conducted by maintaining the temperature of the dissolving bath at 37° C. and regulating the paddle rotation speed to 50 rpm.
The concentration of the drug in solution was determined at 2-minute intervals by spectrophotometry.
Each sample was analysed in triplicate.

% DISS (percentage compared with the initial dose of PRX in the sample) (T 0 min): 0%
% DISS (percentage compared with the initial dose of PRX in the sample) (T 2 min): 0.052%
% DISS (percentage compared with the initial dose of PRX in the sample) (T 4 min): 0.245%
% DISS (percentage compared with the initial dose of PRX in the sample) (T 6 min): 0.451%
% DISS (percentage compared with the initial dose of PRX in the sample) (T 8 min): 0.619%
% DISS (percentage compared with the initial dose of PRX in the sample) (T 10 min): 0.851%
% DISS (percentage compared with the initial dose of PRX in the sample) (T 20 min): 2.051%
% DISS (percentage compared with the initial dose of PRX in the sample) (T 30 min): 3.340%
% DISS (percentage compared with the initial dose of PRX in the sample) (T 40 min): 4.694%
% DISS (percentage compared with the initial dose of PRX in the sample) (T 50 min): 6.087%
% DISS (percentage compared with the initial dose of PRX in the sample) (T 60 min): 7.635%
Structure (SMILES): CN1C(C(=O)Nc2ccccn2)=C(O)c2ccccc2S1(=O)=O [PRX, piroxicam]
